Data on eleven compounds can be found in ChEMBL document CHEMBL1201862, “PubChem BioAssay data set” (2004).

Common to all, as to assay: NCI anticancer screen, dose series, 48 h
For assay [1], the system named is CAKI-1.
The subject of assay [2] is T47D.
The subject of assay [3] is NCI-H23.
The test system of assay [4] is SW-620.
Assay [5] has as its system NCI-H460.
The subject of assay [6] is SK-MEL-2.
Assay [7] concerns M14.
Assay [8] relates to SR.
The subject of assay [9] is HCT-15.
Assay [10] concerns MOLT-4.
Assay [11] concerns HCC 2998.
The subject of assay [12] is SNB-75.
Assay [13] deals with A549.
In assay [14] the test system is Malme-3M.
Assay [15] deals with EKVX.
The subject of assay [16] is SNB-19.
The subject of assay [17] is HOP-92.
Assay [18] relates to UACC-62.
In assay [19] the test system is SK-OV-3.
The subject of assay [20] is DMS-273.

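Tested at 5 concentrations; 48 h exposure; 96-well plates; endpoints linearly interpolated, else capped at highest concentration. Here, GI50 denotes the concentration required for 50% inhibition of growth.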 Calls of active or inactive are those of the source. Rule as the data show it: active = GI50 up to about 1.1 µM and inactive = higher.

As to `O=C(Nc1ccc(Cl)c(Cl)c1)C(=O)C(C1OC(=O)c2ccccc21)[N+](=O)[O-]` (stereo unspecified), the GI50 in [1], in assay [2], in assay [3], in assay [4], in [5] and in [6] was > 100 µM (inactive) in each case. The GI50 in [7] is > 100 µM (inactive); in assay [8] it was > 100 µM (inactive); in assay [9], more than 100 µM; in assay [10] it was > 100 µM (inactive); in assay [11], > 100 µM (inactive); in [12], > 100 µM (inactive). For the same compound, the GI50 in assay [13] is > 100 µM (inactive); in [14], > 100 µM (inactive); in assay [15] it was > 100 µM (inactive); in assay [16] it was > 100 µM (inactive); in assay [17] it was 81.7 µM (inactive); in assay [18], > 100 µM (inactive). The GI50 in assay [19] was > 100 µM (inactive).
Turning to `N=C(N)NNC(=O)CCCCCCCC(=O)NNC(=N)N`, the GI50 in assay [1] was > 100 µM (inactive); in assay [3] it was > 100 µM (inactive); in assay [4], 10.4 µM (inactive); in assay [5], > 100 µM (inactive); in [6] it was > 100 µM (inactive); in [20] it was > 100 µM (inactive). Further, the GI50 in assay [7] was > 100 µM (inactive); in assay [9], 17.9 µM; in [11] it was > 100 µM (inactive); in assay [13], > 100 µM (inactive); in assay [14] it was > 100 µM (inactive); in assay [15], > 100 µM (inactive). Besides, the GI50 in assay [16], in [18] and in assay [19] was > 100 µM (inactive) in each case.
Regarding `C[C@H](CCc1nc(C#N)c(N)o1)[C@H]1CC[C@H]2[C@@H]3[C@@H](O)CC4C[C@@H](O)CC[C@]4(C)[C@H]3C[C@@H](O)[C@]12C` (stereo partly specified), the GI50 in assay [1] is 30.5 µM (inactive); in assay [2] it was 27.5 µM (inactive); in [3], 24 µM (inactive); in assay [4], 23.5 µM (inactive); in assay [5], 21.9 µM (inactive); in assay [6] it was 19.9 µM (inactive). The GI50 in [7] was 29 µM (inactive); in assay [8], 17 µM (inactive); in assay [9], 48.3 µM; in assay [10] it was 15 µM (inactive); in assay [11] it was 19.1 µM (inactive); in assay [12], 10.3 µM (inactive). In addition, the GI50 in assay [13] is 29.4 µM (inactive); in [14], 7.38 µM (inactive); in assay [15], 28.3 µM (inactive); in assay [16], 23.9 µM (inactive); in assay [17], 22.2 µM (inactive); in assay [18], 10.7 µM (inactive). For the same compound, the GI50 in assay [19] is 37.5 µM (inactive).
`CC1(C)C2C=C(CCN3CCOCC3)CC1C2` (stereo unspecified): the GI50 in [1], in [2], in [3], in assay [4], in [5] and in assay [6] was > 100 µM (inactive) in each case. The GI50 in assay [7] was > 100 µM (inactive); in assay [8], > 100 µM (inactive); in [9] it was more than 100 µM; in assay [10], > 100 µM (inactive); in assay [11], > 100 µM (inactive); in assay [12] it was 71.3 µM (inactive). For the same compound, the GI50 in assay [13] was > 100 µM (inactive); in assay [14], > 100 µM (inactive); in assay [15], > 100 µM (inactive); in assay [16] it was > 100 µM (inactive); in [17], 15.3 µM (inactive); in [18], > 100 µM (inactive). The GI50 in assay [19] is > 100 µM (inactive).
As to `COC(=O)[C@]12CCC(=O)N1[C@H](C(=O)O)Cc1c2[nH]c2ccccc12`, the GI50 in [1], in assay [2], in assay [3], in assay [4], in assay [5] and in assay [6] was > 100 µM (inactive) in each case. Moreover, the GI50 in [7] was > 100 µM (inactive); in assay [8] it was > 100 µM (inactive); in assay [9] it was more than 100 µM; in [10] it was > 100 µM (inactive); in assay [11] it was > 100 µM (inactive); in [12] it was > 100 µM (inactive). Moreover, the GI50 in [13], in assay [14], in assay [15], in [16], in assay [17] and in assay [18] was > 100 µM (inactive) in each case. The GI50 in assay [19] was > 100 µM (inactive).
With `CCn1sc2ccccc2c1=O`, the GI50 was 3.43 µM (inactive) in assay [1]; 7.93 µM (inactive) in [2]; 13 µM (inactive) in assay [3]; 6.35 µM (inactive) in assay [4]; 32.1 µM (inactive) in [5]; 21.7 µM (inactive) in [6]. For the same compound, the GI50 in [7] is 4.97 µM (inactive); in assay [8] it was 1.95 µM (inactive); in assay [9], 7.94 µM; in assay [10] it was 3.78 µM (inactive); in assay [11], 17.4 µM (inactive); in assay [12], 13.7 µM (inactive). Besides, the GI50 was 16.1 µM (inactive) in assay [13]; 15.8 µM (inactive) in [14]; 17.1 µM (inactive) in assay [15]; 11.3 µM (inactive) in [16]; 10.1 µM (inactive) in assay [17]; 13.9 µM (inactive) in assay [18]. The GI50 in assay [19] was 36 µM (inactive).
Consider `COC(=N)C12C(N)=NC(OC)(OC)C1(C#N)C21C(=O)N(c2ccccc2)N=C1C` (stereo unspecified), for which the GI50 in assay [1], in assay [2], in [3], in assay [4], in [5] and in assay [6] was > 100 µM (inactive) in each case. In addition, the GI50 in [7] was > 100 µM (inactive); in [8] it was 37.6 µM (inactive); in assay [9], more than 100 µM; in assay [10] it was > 100 µM (inactive); in assay [11] it was > 100 µM (inactive); in [12], > 100 µM (inactive). For the same compound, the GI50 in assay [13], in [14], in assay [15], in [16], in [17] and in assay [18] was > 100 µM (inactive) in each case. Also, the GI50 in assay [19] is > 100 µM (inactive).
Consider `Cc1cc(=O)oc2cc(OC(=O)N(CCCl)CCCl)ccc12`, for which the GI50 in assay [1] is > 100 µM (inactive); in [2], 62.4 µM (inactive); in assay [3] it was > 100 µM (inactive); in [4], > 100 µM (inactive); in assay [5], > 100 µM (inactive); in [6] it was > 100 µM (inactive). Besides, the GI50 in [7] is > 100 µM (inactive); in assay [8] it was 63.2 µM (inactive); in assay [9], 77.6 µM; in assay [10], 82.6 µM (inactive); in assay [11], > 100 µM (inactive); in assay [12], 50.7 µM (inactive). The GI50 in assay [13] was > 100 µM (inactive); in assay [14], > 100 µM (inactive); in assay [15], > 100 µM (inactive); in assay [16], > 100 µM (inactive); in assay [17], 18.2 µM (inactive); in assay [18], 29.4 µM (inactive). Besides, the GI50 in [19] was > 100 µM (inactive).
Take `COc1cc(Cl)c2c3c(c(C(C)=O)oc13)CCC2`: the GI50 in [1], in [3], in assay [4], in assay [5], in [20] and in assay [7] was > 100 µM (inactive) each time. For the same compound, the GI50 was more than 100 µM in assay [9]; > 100 µM (inactive) in [11]; > 100 µM (inactive) in [12]; > 100 µM (inactive) in [13]; > 100 µM (inactive) in assay [15]; > 100 µM (inactive) in assay [16]. The GI50 in assay [17] is 92.9 µM (inactive); in assay [18] it was > 100 µM (inactive); in assay [19], > 100 µM (inactive).
As for `Cc1ccc(C)c(COCCOCn2cc(Br)c(N)nc2=O)c1`, the GI50 in assay [1], in assay [2], in [3], in [4], in assay [5] and in assay [6] was > 100 µM (inactive) each time. Moreover, the GI50 in [7] was > 100 µM (inactive); in [8] it was > 100 µM (inactive); in assay [9] it was more than 100 µM; in [10] it was > 100 µM (inactive); in assay [11] it was > 100 µM (inactive); in [12], > 100 µM (inactive). Also, the GI50 in [13], in assay [14], in [15], in assay [16], in [17] and in assay [18] was > 100 µM (inactive) in each case. The GI50 in assay [19] is > 100 µM (inactive).
With `O=C1/C(=C/c2ccc(O)c(O)c2)CC/C1=C\c1ccc(O)c(O)c1`, the GI50 in assay [1] was 8.17 µM (inactive); in assay [2], 4.66 µM (inactive); in [3], 3.09 µM (inactive); in [4], 14 µM (inactive); in [5], 9.66 µM (inactive); in [6], 22.7 µM (inactive). Besides, the GI50 in [7] is 3.03 µM (inactive); in assay [8], 2.3 µM (inactive); in assay [9], 7.16 µM; in [10] it was 3.23 µM (inactive); in assay [11], > 21.6 µM (inactive); in [12] it was 6.7 µM (inactive). The GI50 in assay [13] was 15.7 µM (inactive); in assay [14], > 29.8 µM (inactive); in assay [15], 10.7 µM (inactive); in assay [16] it was 7.11 µM (inactive); in assay [17] it was 4.17 µM (inactive); in assay [18] it was 3.79 µM (inactive). In addition, the GI50 in assay [19] was 12.1 µM (inactive).
